Data set [1] can be described thus: Storage stability of eplerenone solution formulations SF-2 to SF-5 at different pH, HPLC (Example 2). Format: physicochemical. The following applies: storage at various temperatures and for various time periods. The text has this: The pH of each formulation was adjusted as indicated.
Aliquots of each solution formulation were stored at four different temperatures for a period of 12 weeks. Degradation of eplerenone was monitored via high performance liquid chromatography (HPLC) throughout storage.
Cells in Table 3 which have the symbol “--” therein indicate that no stability data was collected for that particular time and storage temperature.

A short description of data set [2]: Solubility of eplerenone in pure solubilizers at room temperature. The conditions noted are these: organic solvent or mixture. Format: physicochemical. As to the method:
Preparation of a pharmaceutically acceptable parenteral eplerenone formulation is therefore made difficult by the fact that (a) the solubility of eplerenone in many otherwise parenterally acceptable solubilizers, even in such solubilizers in pure form, is very low, (b) eplerenone dose requirements are relatively high (e.g. about 50 mg/day or more), and (c) the concentration and/or total amount of many parenterally acceptable solubilizers which can be safely parenterally delivered to a subject is relatively low.

The record followed here is US20050080046A1, “Storage stable eplerenone formulation” (priority 2002, published 2005).

Structures are written as SMILES. In brackets after ≈: the same amount, converted by molar mass.

One may read the solubility as the concentration that dissolves in the medium under given conditions.

Take `COC(=O)[C@@H]1CC2=CC(=O)CC[C@]2(C)[C@@]23O[C@@H]2C[C@@]2(C)[C@@H](CC[C@@]24CCC(=O)O4)[C@H]13` [eplerenone, methyl hydrogen 9,11α-epoxy-17α-hydroxy-3-oxopregn-4-ene-7α,21-dicarboxylate, γ-lactone]: the “stability of eplerenone in solution by pH (in words)” value in data set [1] is on record as “more stable in a solution maintained at a pH of 5 than at a pH of 2, 7 or 9”. In addition, the solubility in data set [2] (pure glycerin, room temperature) is below 1600 µg/mL; in data set [2] (pure polyethylene glycol 400, room temperature), 3300 to 5700 µg/mL (≈ 7.96 to 13.8 mM); in data set [2] (pure propylene glycol, room temperature), below 300 µg/mL.
